The source of these data is PubChem BioAssay (NCI).

Some test systems named below: NCI-H522 lung; PC-3 prostate; KM12 colon; SW-620 colon; OVCAR-3 ovarian; T-47D breast; MDA-MB-435; MALME-3M melanoma; NCI-H460 lung; SK-MEL-2 melanoma.
Common to all, as to experiment: DTP human tumour cell line panel, 48 h

Values joined by “and” are separate entries in the source; they are usually repeats but may differ in a detail not shown here. Identical values can stand only once.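 How tested: cells in 96-well plates exposed to compound for 48 hours at five concentrations. GI50 = concentration required for 50% inhibition of growth. TGI denotes the concentration required for complete inhibition of growth.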

Broadly, the GI50 is the concentration at which growth is held to half of that of the control. By TGI is commonly meant the concentration giving total growth inhibition. A higher TGI goes with less potent growth arrest. Take `COc1cc2c(cc1OCC(=O)Nc1ccc(Cl)cc1C(=O)c1ccccc1Cl)N=CC1CCCN1C2=O` (stereo not given): the GI50 was 2.59 µM with NCI-H522 lung; 12.3 µM in the experiment on PC-3 prostate; 11.8 µM in the experiment on KM12 colon; 11.8 µM with SW-620 colon; 3.72 µM in the experiment with OVCAR-3 ovarian; 5.21 µM in the experiment with T-47D breast. In addition, the GI50 is 13 µM in the experiment with MDA-MB-435, 20.1 µM with MALME-3M melanoma, 11.1 µM with NCI-H460 lung and 7.4 µM in the experiment with SK-MEL-2 melanoma. Further, the TGI in the experiment on NCI-H522 lung worked out at 7.17 µM; in the experiment on PC-3 prostate it was 33.2 µM; with KM12 colon, 26 µM; in the experiment on SW-620 colon, 25.8 µM; with OVCAR-3 ovarian, 14.6 µM; in the experiment on T-47D breast, 22.2 µM. The concentration for total growth inhibition (TGI) in the experiment with MDA-MB-435 amounted to 26.3 µM; with MALME-3M melanoma it was 37 µM; in the experiment with NCI-H460 lung it was 27.1 µM; in the experiment with SK-MEL-2 melanoma, 19.6 µM.
`CC1=CC2(C)/C=C(C)/C=C\CC(O)/C=C3/C=CC(=C4C(=O)OC2(CC1C)C4=O)OC3` (stereo not given): the GI50 with NCI-H522 lung was 2.46 µM; in the experiment on PC-3 prostate, 1.45 µM; in the experiment with KM12 colon, 3.17 µM; in the experiment with SW-620 colon, 0.512 µM; in the experiment with OVCAR-3 ovarian it was 1.18 µM; with T-47D breast it was 1.63 µM. Moreover, the GI50 was 2 µM in the experiment with MDA-MB-435, 2.14 µM with MALME-3M melanoma, 3.84 µM with NCI-H460 lung and 2.61 µM in the experiment on SK-MEL-2 melanoma. Besides, the total growth inhibition concentration (TGI) worked out at 8.55 µM in the experiment on NCI-H522 lung; 7.89 µM with PC-3 prostate; 10.5 µM in the experiment with KM12 colon; 2.72 µM in the experiment on SW-620 colon; 2.5 µM in the experiment on OVCAR-3 ovarian; 6.52 µM with T-47D breast. The concentration for total growth inhibition (TGI) is 5.12 µM in the experiment on MDA-MB-435, 5.13 µM with MALME-3M melanoma, 15.7 µM with NCI-H460 lung and 6.51 µM with SK-MEL-2 melanoma.
On to `CC1(C)OCC2OC(n3cnc4c(N)nc(Cl)nc43)C(OS(C)(=O)=O)C2O1` (stereo not given), for which the TGI in the experiment with NCI-H522 lung, in the experiment with PC-3 prostate, in the experiment with KM12 colon, in the experiment with SW-620 colon, in the experiment on OVCAR-3 ovarian and in the experiment with T-47D breast was more than 100 µM in each case. The TGI in the experiment on MDA-MB-435, in the experiment on MALME-3M melanoma, with NCI-H460 lung and with SK-MEL-2 melanoma was more than 100 µM each time.
In the case of `Cc1c(C(=O)Nc2ccc(N3C[C@@H](C)O[C@@H](C)C3)nc2)cccc1-c1ccc(OC(F)(F)F)cc1`, the GI50 was 9.14 µM and 10.2 µM with NCI-H522 lung; 5.44 µM and 6.68 µM in the experiment on PC-3 prostate; 12.7 µM and 9.64 µM with KM12 colon; 10.6 µM and 13.9 µM in the experiment with SW-620 colon; 6.23 µM and 5.13 µM in the experiment on OVCAR-3 ovarian; 2.69 µM and 2.41 µM in the experiment on T-47D breast. Besides, the GI50 is 7.29 µM and 5.89 µM in the experiment with MDA-MB-435; 12.1 µM and 13.3 µM with MALME-3M melanoma; 8.67 µM and 6.79 µM with NCI-H460 lung; 13.1 µM and 21.6 µM in the experiment with SK-MEL-2 melanoma. In addition, the total growth inhibition concentration (TGI) was 33.9 µM and 34.9 µM with NCI-H522 lung; 27 µM and 36.8 µM with PC-3 prostate; 59 µM and 50.4 µM with KM12 colon; > 88.4 µM and 93.3 µM in the experiment with SW-620 colon; 24 µM and 24.2 µM in the experiment on OVCAR-3 ovarian; 25.2 µM and 17.6 µM in the experiment with T-47D breast. Also, the TGI was 49.2 µM and 38 µM in the experiment with MDA-MB-435; 46.2 µM and 46 µM with MALME-3M melanoma; > 68.6 µM and 83.7 µM with NCI-H460 lung; 44.9 µM and > 100 µM with SK-MEL-2 melanoma.
On to `C=C1C(=O)O[C@@H]2/C=C(/C)[C@@H](OC(C)=O)C[C@@H](O)/C(C)=C\[C@@H](OC(=O)[C@]3(C)O[C@@H]3C)[C@@H]12`, for which the TGI came out at 2.81 µM in the experiment on NCI-H522 lung; 32.3 µM in the experiment on PC-3 prostate; 36.3 µM with KM12 colon; 18.5 µM in the experiment on SW-620 colon; 23.8 µM in the experiment on OVCAR-3 ovarian; 24.1 µM in the experiment with T-47D breast. In addition, the TGI with MDA-MB-435 amounted to 28.8 µM; in the experiment on MALME-3M melanoma, 11.6 µM; with NCI-H460 lung it was 72.9 µM; with SK-MEL-2 melanoma, 33.9 µM.
Turning to `CCC[CH2][Sn]1([CH2]CCC)[O]C(=O)c2cccc([N+](=O)[O-])c2C(=O)[O]1`, the concentration for 50% growth inhibition (GI50) was 0.0711 µM with NCI-H522 lung; 1.06 µM in the experiment on PC-3 prostate; 1.6 µM in the experiment on KM12 colon; 0.171 µM in the experiment on SW-620 colon; 1.06 µM in the experiment on OVCAR-3 ovarian; 0.0604 µM in the experiment with T-47D breast. The GI50 is 0.594 µM in the experiment on MDA-MB-435, 0.189 µM with MALME-3M melanoma, 1.66 µM in the experiment on NCI-H460 lung and 0.286 µM in the experiment with SK-MEL-2 melanoma. Moreover, the TGI came to 0.217 µM with NCI-H522 lung; 2.45 µM with PC-3 prostate; 3.16 µM in the experiment with KM12 colon; 0.54 µM with SW-620 colon; 2.3 µM in the experiment with OVCAR-3 ovarian; 0.27 µM with T-47D breast. In addition, the concentration for total growth inhibition (TGI) in the experiment on MDA-MB-435 was 1.91 µM; in the experiment on MALME-3M melanoma it was 0.623 µM; in the experiment on NCI-H460 lung, 3.57 µM; in the experiment with SK-MEL-2 melanoma, 0.825 µM.
Regarding `COc1cc2[nH]c3c(c2cc1OC)CCN[C@@]31CC[C@@]2(CC3c4c(cc(OC)c(O)c42)CCN3C)C[C@@H]1OC` (stereo not given in full), the concentration for total growth inhibition (TGI) in the experiment on NCI-H522 lung is 66.7 µM; in the experiment on PC-3 prostate, more than 100 µM; in the experiment with KM12 colon, more than 85 µM; with SW-620 colon it was more than 92.2 µM; with OVCAR-3 ovarian it was more than 94.8 µM; in the experiment with T-47D breast, 51.8 µM. Besides, the total growth inhibition concentration (TGI) is 41.4 µM with MDA-MB-435, 33.8 µM in the experiment with MALME-3M melanoma, more than 100 µM in the experiment on NCI-H460 lung and 40.6 µM with SK-MEL-2 melanoma.
As to `Cc1nnc(N/N=C/c2ccc([N+](=O)[O-])o2)[nH]c1=O`, the GI50 is 0.914 µM in the experiment on NCI-H522 lung; 0.512 µM in the experiment with PC-3 prostate; 0.575 µM in the experiment with KM12 colon; 1.24 µM with SW-620 colon; 0.429 µM in the experiment on OVCAR-3 ovarian; 1.07 µM with T-47D breast. The GI50 is 0.908 µM in the experiment with MDA-MB-435, 0.97 µM in the experiment on MALME-3M melanoma, 3.19 µM with NCI-H460 lung and 3.14 µM in the experiment with SK-MEL-2 melanoma. Further, the concentration for total growth inhibition (TGI) with NCI-H522 lung was 5.58 µM; in the experiment on PC-3 prostate it was more than 100 µM; in the experiment on KM12 colon it was more than 100 µM; in the experiment with SW-620 colon it was more than 100 µM; in the experiment on OVCAR-3 ovarian, 3.18 µM; with T-47D breast, 13.8 µM. Moreover, the TGI in the experiment on MDA-MB-435 was more than 100 µM; in the experiment with MALME-3M melanoma, 4.3 µM; in the experiment with NCI-H460 lung, 14.6 µM; with SK-MEL-2 melanoma it was more than 48.8 µM.
